Experimental data published in patent EP2226070B1, “Process for determining the optimal dosage of antivitamins K in anticoagulant therapy” (Puech, Roger, priority 2009, dated 2010).

Tested on: INR
Assay: Correlation of optimal dosages between different vitamin K antagonists, established with the dosage determination process
Type: in vivo, patient
Details: for dose correspondant à 1/4 de comprimé de "Préviscan" (corrélation proportionnelle entre différents antivitamines K): dose equivalent to 1/4 tablet of Préviscan for the optimal anticoagulant dosage
Source text: Ce procédé de détermination est original en ce qu'il comprend les étapes suivantes consistant : • (a) à enregistrer la valeur IO de l'INR optimal cible, • (b) à enregistrer les valeurs d'INR mesurées dans une période donnée T1 à partir d'un surdosage Dmaxi dudit antivitamine K fixé préalablement par le prescripteur au-dessus du dosage préconisé, afin de déterminer une première pente P1 des valeurs d'INR en fonction du temps T1, • (c) à partir de la pente P1, à extrapoler et à enregistrer une valeur Imaxi d'INR théoriquement atteinte à partir du jour où la valeur IO de l'INR cible est atteinte et au bout d'une période déterminée T0, • (d) à enregistrer les valeurs d'INR mesurées dans une période donnée T2 à partir d'un sous-dosage Dmini dudit antivitamine K fixé par le prescripteur au-dessous du dosage préconisé, afin de déterminer une deuxième pente P2 des valeurs d'INR en fonction du temps T2, • (e) à partir de la pente P2, à extrapoler et à enregistrer une valeur Imini d'INR théoriquement atteinte à partir du jour où la valeur IO de l'INR cible est atteinte et au bout de la même période déterminée T0, • (f) à calculer à partir de la différence entre les valeurs Imaxi et Imini d'INR théoriquement calculées, un facteur de correction de posologie dudit antivitamine K exprimé selon la formule suivante : F = (Imaxi -Imini)/(Dmaxi -Dmini) [formula] • (g) afin de déterminer à partir de la différence entre les valeurs I0 de l'INR cible optimal et de l'Imini de l'INR minimum calculé, et dudit facteur F de correction de posologie dudit antivitamine K, la posologie adéquate D0 permettant d'atteindre et de maintenir constante la valeur Io de l'INR cible fixée préalablement selon la relation suivante : D0 = Dmini + (I0 -Imini)/(F). [formula]
C'est aussi à partir de son procédé de détermination de dosage optimal d'un antivitamine K, que le demandeur a pu établir également une corrélation proportionnelle entre différents antivitamines K (1/4 de comprimé de "Préviscan" correspond à 0,82 mg de "Sintrom", à 2 mg de "Coumadine" ou à 0,82 mg de "Apegmone") de sorte qu'à partir d'un dosage optimal d'un antivitamine K prescrit, il peut calculer le dosage optimal d'un autre antivitamine K en remplacement du premier.

CC(=O)CC(c1ccc([N+](=O)[O-])cc1)c1c(O)c2ccccc2oc1=O (stereo not shown) [Sintrom]
dose correspondant à 1/4 de comprimé de "Préviscan" (corrélation proportionnelle entre différents antivitamines K): 0,82 mg

O=C1c2ccccc2C(=O)C1c1ccc(F)cc1 [Préviscan]
dose de référence de la corrélation proportionnelle entre différents antivitamines K (reference dose of the proportional correlation): 1/4

O=c1oc2ccccc2c(O)c1C(CC(O)c1ccc(Cl)cc1)c1ccc(Cl)s1 (stereo not shown) [Apegmone]
dose correspondant à 1/4 de comprimé de "Préviscan" (corrélation proportionnelle entre différents antivitamines K): 0,82 mg

CC(=O)CC(c1ccccc1)c1c(O)c2ccccc2oc1=O (stereo not shown) [Coumadine]
dose correspondant à 1/4 de comprimé de "Préviscan" (corrélation proportionnelle entre différents antivitamines K): 2 mg
